# Laboratory results published in publication PMC6981391, “The Selective Class IIa Histone Deacetylase Inhibitor TMP195 Resensitizes ABCB1- and ABCG2-Overexpressing Multidrug-Resistant Cancer Cells to Cytotoxic Anticancer Drugs” (International Journal of Molecular Sciences, 2019).
# What was measured:
# ABCB1 = target: T1, ABCB1 (Homo sapiens, UniProt P08183); experiment: stimulation of vanadate-sensitive ATPase activity in membrane vesicles (endpoint Pi assay); also inhibits calcein-AM efflux in MDR19-HEK293 and KB-V-1 cells; format: biochemical
# T1 construct: membrane vesicles from High-Five insect cells infected with recombinant baculovirus containing ABCB1
# T1 sequence (P08183 whole entry): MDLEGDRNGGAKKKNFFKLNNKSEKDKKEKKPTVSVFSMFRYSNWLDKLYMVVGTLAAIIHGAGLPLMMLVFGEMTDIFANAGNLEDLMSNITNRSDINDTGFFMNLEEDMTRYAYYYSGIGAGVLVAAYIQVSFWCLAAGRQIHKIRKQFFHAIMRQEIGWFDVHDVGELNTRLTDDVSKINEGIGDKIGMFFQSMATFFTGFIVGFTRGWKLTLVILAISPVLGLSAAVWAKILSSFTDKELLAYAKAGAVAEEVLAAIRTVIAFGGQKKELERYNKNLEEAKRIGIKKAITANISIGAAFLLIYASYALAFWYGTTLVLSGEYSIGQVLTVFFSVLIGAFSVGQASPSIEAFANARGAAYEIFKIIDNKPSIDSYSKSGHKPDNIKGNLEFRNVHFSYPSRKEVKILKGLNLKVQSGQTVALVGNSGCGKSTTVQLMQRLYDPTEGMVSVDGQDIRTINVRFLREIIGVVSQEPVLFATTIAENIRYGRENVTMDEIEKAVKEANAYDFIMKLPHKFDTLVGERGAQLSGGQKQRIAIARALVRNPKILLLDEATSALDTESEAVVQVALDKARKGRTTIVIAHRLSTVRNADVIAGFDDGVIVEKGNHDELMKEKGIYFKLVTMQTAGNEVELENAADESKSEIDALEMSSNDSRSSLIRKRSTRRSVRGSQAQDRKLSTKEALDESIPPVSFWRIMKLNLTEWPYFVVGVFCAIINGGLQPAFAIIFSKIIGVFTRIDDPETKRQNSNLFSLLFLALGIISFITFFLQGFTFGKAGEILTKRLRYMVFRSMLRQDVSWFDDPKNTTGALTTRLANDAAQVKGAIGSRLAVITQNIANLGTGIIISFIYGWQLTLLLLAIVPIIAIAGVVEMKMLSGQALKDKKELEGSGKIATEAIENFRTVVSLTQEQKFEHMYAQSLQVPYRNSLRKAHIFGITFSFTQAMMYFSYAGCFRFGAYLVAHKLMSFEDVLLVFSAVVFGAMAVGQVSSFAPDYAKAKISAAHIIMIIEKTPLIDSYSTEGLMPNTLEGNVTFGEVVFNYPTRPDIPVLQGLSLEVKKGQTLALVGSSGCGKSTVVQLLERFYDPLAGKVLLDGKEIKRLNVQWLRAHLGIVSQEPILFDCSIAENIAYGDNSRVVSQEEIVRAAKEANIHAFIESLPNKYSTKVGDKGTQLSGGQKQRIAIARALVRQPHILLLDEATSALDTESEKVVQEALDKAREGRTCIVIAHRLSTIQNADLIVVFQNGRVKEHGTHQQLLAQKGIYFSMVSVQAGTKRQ
# ABCG2 = target: T2, ABCG2 (Homo sapiens, UniProt Q9UNQ0); experiment: biochemical
# T2 sequence (Q9UNQ0 1-655): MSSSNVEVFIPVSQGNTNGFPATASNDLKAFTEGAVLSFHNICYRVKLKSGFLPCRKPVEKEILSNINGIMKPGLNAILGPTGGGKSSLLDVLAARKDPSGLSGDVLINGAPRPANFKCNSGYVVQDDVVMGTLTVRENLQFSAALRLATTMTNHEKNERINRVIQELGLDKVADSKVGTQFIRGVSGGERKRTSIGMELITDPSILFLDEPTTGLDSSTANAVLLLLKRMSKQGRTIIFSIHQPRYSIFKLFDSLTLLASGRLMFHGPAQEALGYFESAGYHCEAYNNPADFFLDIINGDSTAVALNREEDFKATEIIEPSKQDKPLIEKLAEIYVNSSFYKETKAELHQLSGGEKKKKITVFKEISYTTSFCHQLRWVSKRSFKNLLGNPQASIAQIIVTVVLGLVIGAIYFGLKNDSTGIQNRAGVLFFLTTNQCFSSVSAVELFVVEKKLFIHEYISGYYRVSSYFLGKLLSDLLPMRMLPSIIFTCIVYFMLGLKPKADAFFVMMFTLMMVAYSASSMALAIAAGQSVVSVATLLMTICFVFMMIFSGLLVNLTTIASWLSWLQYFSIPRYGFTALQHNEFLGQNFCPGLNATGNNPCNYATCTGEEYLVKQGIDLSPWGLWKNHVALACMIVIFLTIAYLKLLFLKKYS
structure (smiles),measurement,setting,value
CC(C)(CNC(=O)c1cccc(-c2noc(C(F)(F)F)n2)c1)c1coc(-c2ccccc2)n1 [TMP195],EC50,ABCB1,~2000 nM
same,EC50,ABCG2,~400 nM
